The values that follow come from patent US20210205192A1, “ANTIMICROBIAL MIXTURE CONTAINING 4-(3-ETHOXY-4-HYDROXYPHENYL)BUTAN-2-ONE AND A DIOL, AND COSMETIC COMPOSITION CONTAINING SAME” (L'OREAL, priority 2017, published 2021).

The test system of test [1] is Candida albicans ATCC 10231. As to the kind of experiment: Synergistic antimicrobial activity as MIC (96-well microplate, optical density at 620 nm), Candida albicans. It counts as cell-based. The source says: (§1) FIC Index=(MICa with B/MICa)+(MICb with A/MICb)
(§2) with: • MICa with B: minimum concentration of product A in the combination A+B which makes it possible to obtain an inhibitory effect • MICb with A: minimum concentration of product B in the combination A+B which makes it possible to obtain an inhibitory effect. • MICa: minimum inhibitory concentration of product A alone. • MICb: minimum inhibitory concentration of product B alone.
(§3) As regards the combinations tested, MICa with b and MICb with a are the respective concentrations of A and of B in the combinations which make it possible to obtain a microbial growth percentage of less than or equal to 20%.
(§4) When the FIC index value is less than or equal to 1, it is considered that the combination of test compounds has a synergistic effect.
The microbial strain Candida albicans ATCC 10231 and a double-concentration Sabouraud broth liquid culture medium were used.
(§5) A 96-well microplate and an […] of 32.5° C. are used.
(§6) The incubation time of the microplate is: • from 18 to 24 h under aerobic conditions for Candida albicans ATCC 10231; • from 24 to 30 h under aerobic conditions for Aspergillus niger ATCC 6275.
(§7) A 10% (weight/volume) stock solution was prepared by mixing 1 g of compound in 9 ml of aqueous 1% o agar solution. Successive dilutions were made with the 1% o agar solution. • Test of compounds A and B alone
(§8) 50 μl of each of the daughter solutions obtained containing compound A or B are added to the microplate wells. 100 μl of Sabouraud liquid nutrient broth inoculated with the strain Aspergillus niger and 50 μl of aqueous 1% o agar solution are also added thereto. • Test of compounds A and B as a mixture
(§9) 50 μl of each of the daughter solutions obtained containing compound A and 50 μl of each of the daughter solutions obtained containing compound B are added to the microplate wells. 100 μl of Sabouraud liquid nutrient broth inoculated at double concentration with the strain Aspergillus niger are also added thereto.
The test as described above (tests, absorbance control and growth control) was performed again to test the combination A and B on the Candida albicans strain.

The test system of test [2] is Aspergillus niger ATCC 6275. Put plainly: Synergistic antimicrobial activity as MIC (96-well microplate, optical density at 620 nm), Aspergillus niger. The class given is cell-based.
From the text: as §1, §2, §3, §4
The microbial strain Aspergillus niger ATCC 6275, and a double-concentration Sabouraud broth liquid culture medium supplemented with polyoxyethylenated (20 OE) sorbitan monopalmitate (Tween 40 from Croda) and Phytagel© BioReagent were used (i.e. a mixture of 5 g of Phytagel+0.6 g Tween 40+60 g of Sabouraud broth).
as §5, §6, §7, §8, §9
A positive microbial growth control was also prepared. The positive microbial growth control corresponds to a mixture of 100 μl of aqueous 1% o agar solution with 100 μl of Sabouraud liquid nutrient broth inoculated at double concentration with the strain Aspergillus niger in the absence of compounds A and B.
An absorbance control was performed in parallel on compounds A and B alone. This control corresponds to 100 μl of double concentration sterile Sabouraud liquid nutrient broth+100 μl of double concentration compound A or B.
In the three cases (absorbance control, growth control and test), the final volume present in each of the microplate wells is 200 μl.
In the two cases (test and control), the inoculum represents the concentration of the Aspergillus niger strain present in the final volume of the wells (200 μl) and is between 2 and 6×10^5 cfu/ml of Aspergillus niger.

The mark [3] stands for this setting: Aspergillus niger, growth <= 20%.

On to `CCCCCCC(O)CO` (centres unmarked) [B2, 1,2-octanediol], for which the microbial growth percentage is given as 79% in test [1] (0 A, 0.025 B2 (weight %)); 60% in test [1] (0 A, 0.05 B2 (weight %)); 23% in test [1] (0 A, 0.1 B2 (weight %)); 0% in test [1] (0 A, 0.2 B2 (weight %)). Also, in test [1] (B2 alone, Candida albicans, growth <= 20%), the “MIC B2” value is recorded as 0.2%.
`OCCCO` [B1, 1,3-propanediol]: the microbial growth percentage in test [2] (0 A, 0.125 B1 (weight %)) was determined as 77%; in test [2] (0 A, 0.25 B1 (weight %)), 62%; in test [2] (0 A, 0.5 B1 (weight %)), 50%; in test [2] (0 A, 1 B1 (weight %)), 36%; in test [2] (0 A, 2 B1 (weight %)), 11%. In test [2] (setting [3]), the “% MIC of B1 alone” value came out at 2%.
Turning to `CCOc1cc(CCC(C)=O)ccc1O` [A, 4-(3-ethoxy-4-hydroxyphenyl)butan-2-one], the microbial growth percentage is given as 42% in test [2] (0.025 A, 0 B1 (weight %)); 39% in test [2] (0.025 A, 0 B3 (weight %)); 25% in test [2] (0.05 A, 0 B1 (weight %)); 32% in test [2] (0.05 A, 0 B3 (weight %)); 10% in test [2] (0.1 A, 0 B1 (weight %)); 12% in test [2] (0.1 A, 0 B3 (weight %)). Moreover, the microbial growth percentage in test [1] (0.025 A, 0 B2 (weight %)) was determined as 81%; in test [1] (0.025 A, 0 B3 (weight %)), 78%; in test [1] (0.05 A, 0 B2 (weight %)), 60%; in test [1] (0.05 A, 0 B3 (weight %)) it was 61%; in test [1] (0.1 A, 0 B2 (weight %)), 27%; in test [1] (0.1 A, 0 B3 (weight %)), 25%. Besides, the microbial growth percentage is on record as 4% in test [1] (0.2 A, 0 B2 (weight %)) and 3% in test [1] (0.2 A, 0 B3 (weight %)). In addition, the “% MIC of A alone” value in test [2] (Aspergillus niger, test series with B1, growth <= 20%) stood at 0.1%; in test [2] (Aspergillus niger, test series with B3, growth <= 20%) it was 0.1%; in test [1] (Candida albicans, test series with B3, growth <= 20%) it was 0.2%. The “% MIC A” value in test [1] (A alone, Candida albicans, test series with B2, growth <= 20%) stood at 0.2%.
As for `CCCCCCCCC(O)CO` (centres unmarked) [B3, 1,2-decanediol], the microbial growth percentage stood at 42% in test [2] (0 A, 0.0125 B3 (weight %)); 10% in test [2] (0 A, 0.025 B3 (weight %)); 45% in test [1] (0 A, 0.0125 B3 (weight %)); 3% in test [1] (0 A, 0.025 B3 (weight %)). Moreover, the “% MIC of B3 alone” value is listed as 0.025% in test [2] (setting [3]) and 0.025% in test [1] (Candida albicans, growth <= 20%).
